A word on the Kd: it is a measure of binding affinity in units of concentration. Read a low Kd as a tighter complex.

The assay has as its target T1, SNX3 (Homo sapiens, UniProt O60493).
T1 construct: Recombinant Human SNX3 protein (ab109970)
In words: biolayer interferometry (biotinylated SNX3 on SA biosensor), supported by CETSA in HCT116 and LoVo lysates. It is filed as binding.

T1 sequence (O60493 2-162): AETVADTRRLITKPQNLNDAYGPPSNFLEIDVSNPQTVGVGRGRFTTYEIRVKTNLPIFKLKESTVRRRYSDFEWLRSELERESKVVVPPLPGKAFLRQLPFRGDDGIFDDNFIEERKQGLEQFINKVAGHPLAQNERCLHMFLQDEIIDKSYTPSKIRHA

As for `C=CCc1ccc(O)c(-c2ccc(O)c(CC=C)c2)c1` [HNK, honokiol], the Kd amounted to 29 µM.

The record behind these values is article PMC11413778, “Honokiol enhances the sensitivity of cetuximab in KRAS^G13D mutant colorectal cancer through destroying SNX3-retromer complex” (Theranostics, 2024).
